The results in this text go back to PubChem BioAssay AID1259407 (Chemical Carcinogenesis Research Information System (CCRIS), 2018).

SMILES strings stand for the structures. Calls of active or inactive are those of the source. How the calls were made is not given here.

The subject of the data set is CCRIS mutagenicity, Ames/micronucleus/aberration tests. Description: CCRIS mutagenicity studies.
The mark [1] stands for this setting: Test System: AMES SALMONELLA TYPHIMURIUM, Strain/Indicator: TA98, Metabolic Activation: NONE, Method: PREINCUBATION
[2] abbreviates: Test System: AMES SALMONELLA TYPHIMURIUM, Strain/Indicator: TA100, Metabolic Activation: NONE, Method: PREINCUBATION
Setting [3] is: Test System: AMES SALMONELLA TYPHIMURIUM, Strain/Indicator: TA98, Metabolic Activation: NONE, Method: STANDARD PLATE.
Setting [4] is: Test System: AMES SALMONELLA TYPHIMURIUM, Strain/Indicator: TA100, Metabolic Activation: NONE, Method: STANDARD PLATE.
[5] abbreviates: Test System: AMES SALMONELLA TYPHIMURIUM, Strain/Indicator: TA104, Metabolic Activation: NONE, Method: STANDARD PLATE.

On to `O=C1C=CC(=O)c2c(O)c(Cl)c(Cl)c(O)c21`, for which the mutagenic call is, setting by setting: (Test System: AMES SALMONELLA TYPHIMURIUM, Strain/Indicator: TA97, Metabolic Activation: NONE, Method: PREINCUBATION) “inactive; negative”; (Test System: AMES SALMONELLA TYPHIMURIUM, Strain/Indicator: TA97, Metabolic Activation: RAT, LIVER, S-9, PHENOBARBITAL AND 5,6-BENZOFLAVONE, Method: PREINCUBATION) “active; positive”; under setting [1], “inactive; negative”; (Test System: AMES SALMONELLA TYPHIMURIUM, Strain/Indicator: TA98, Metabolic Activation: RAT, LIVER, S-9, PHENOBARBITAL AND 5,6-BENZOFLAVONE, Method: PREINCUBATION) “inactive; negative”; under setting [2], “inactive; negative”; (Test System: AMES SALMONELLA TYPHIMURIUM, Strain/Indicator: TA100, Metabolic Activation: RAT, LIVER, S-9, PHENOBARBITAL AND 5,6-BENZOFLAVONE, Method: PREINCUBATION) “inactive; negative”. The mutagenic call (Test System: AMES SALMONELLA TYPHIMURIUM, Strain/Indicator: TA102, Metabolic Activation: NONE, Method: PREINCUBATION) is “inactive; negative”; the mutagenic call (Test System: AMES SALMONELLA TYPHIMURIUM, Strain/Indicator: TA102, Metabolic Activation: RAT, LIVER, S-9, PHENOBARBITAL AND 5,6-BENZOFLAVONE, Method: PREINCUBATION) is “active; positive”; the mutagenic call (Test System: AMES SALMONELLA TYPHIMURIUM, Strain/Indicator: TA104, Metabolic Activation: NONE, Method: PREINCUBATION) is “active; positive”; the mutagenic call (Test System: AMES SALMONELLA TYPHIMURIUM, Strain/Indicator: TA104, Metabolic Activation: RAT, LIVER, S-9, PHENOBARBITAL AND 5,6-BENZOFLAVONE, Method: PREINCUBATION) is “active; positive”; the mutagenic call (Test System: AMES SALMONELLA TYPHIMURIUM, Strain/Indicator: TA1535, Metabolic Activation: NONE, Method: PREINCUBATION) is “inactive; negative”; the mutagenic call (Test System: AMES SALMONELLA TYPHIMURIUM, Strain/Indicator: TA1535, Metabolic Activation: RAT, LIVER, S-9, PHENOBARBITAL AND 5,6-BENZOFLAVONE, Method: PREINCUBATION) was “inactive; negative”. The mutagenic call (Test System: AMES SALMONELLA TYPHIMURIUM, Strain/Indicator: TA1537, Metabolic Activation: NONE, Method: PREINCUBATION) was “inactive; negative”; the mutagenic call (Test System: AMES SALMONELLA TYPHIMURIUM, Strain/Indicator: TA1537, Metabolic Activation: RAT, LIVER, S-9, PHENOBARBITAL AND 5,6-BENZOFLAVONE, Method: PREINCUBATION) is “active; positive”; the mutagenic call (Test System: AMES SALMONELLA TYPHIMURIUM, Strain/Indicator: TA1538, Metabolic Activation: NONE, Method: PREINCUBATION) is “inactive; negative”; the mutagenic call (Test System: AMES SALMONELLA TYPHIMURIUM, Strain/Indicator: TA1538, Metabolic Activation: RAT, LIVER, S-9, PHENOBARBITAL AND 5,6-BENZOFLAVONE, Method: PREINCUBATION) is “inactive; negative”; the mutagenic call (Test System: AMES SALMONELLA TYPHIMURIUM, Strain/Indicator: TA2637, Metabolic Activation: NONE, Method: PREINCUBATION) was “inactive; negative”; the mutagenic call (Test System: AMES SALMONELLA TYPHIMURIUM, Strain/Indicator: TA2637, Metabolic Activation: RAT, LIVER, S-9, PHENOBARBITAL AND 5,6-BENZOFLAVONE, Method: PREINCUBATION) is “active; positive”.

Turning to `CC(C)(Cl)Cl`, the mutagenic call by setting is: (Test System: AMES SALMONELLA TYPHIMURIUM, Strain/Indicator: GSTT1, Metabolic Activation: RAT, LIVER, S-9, AROCLOR 1254, Method: STANDARD PLATE) “inactive; negative”; (Test System: AMES SALMONELLA TYPHIMURIUM, Strain/Indicator: RSJ100, Metabolic Activation: NONE, Method: STANDARD PLATE) “inactive; negative”; under setting [3], “inactive; negative”; (Test System: AMES SALMONELLA TYPHIMURIUM, Strain/Indicator: TA98, Metabolic Activation: RAT, LIVER, S-9, AROCLOR 1254, Method: STANDARD PLATE) “inactive; negative”; under setting [4], “inactive; negative”; (Test System: AMES SALMONELLA TYPHIMURIUM, Strain/Indicator: TA100, Metabolic Activation: RAT, LIVER, S-9, AROCLOR 1254, Method: STANDARD PLATE) “inactive; negative”. Further, the mutagenic call is, setting by setting: under setting [5], “inactive; negative”; (Test System: AMES SALMONELLA TYPHIMURIUM, Strain/Indicator: TA104, Metabolic Activation: RAT, LIVER, S-9, AROCLOR 1254, Method: STANDARD PLATE) “inactive; negative”; (Test System: AMES SALMONELLA TYPHIMURIUM, Strain/Indicator: TA1535, Metabolic Activation: NONE, Method: STANDARD PLATE) “inactive; negative”; (Test System: AMES SALMONELLA TYPHIMURIUM, Strain/Indicator: TA1535, Metabolic Activation: RAT, LIVER, S-9, AROCLOR 1254, Method: STANDARD PLATE) “inactive; negative”.

With `CO[C@H](C)[C@](O)(C(=O)OCC1=CCN2CC[C@H](O)[C@@H]12)C(C)C`, the mutagenic call is “inactive; negative; dose related trend; by authors criteria results are positive” (Test System: AMES SALMONELLA TYPHIMURIUM, Strain/Indicator: TA100, Metabolic Activation: HAMSTER, LIVER, S-9, PCB, Method: PREINCUBATION) and “inactive; negative; dose related trend; by authors criteria results are positive” (Test System: AMES SALMONELLA TYPHIMURIUM, Strain/Indicator: TA100, Metabolic Activation: RAT, LIVER, S-9, PCB, Method: PREINCUBATION).

As to `CC(=O)OCc1ccccc1[N+](=O)[O-]`, the mutagenic call runs as follows: under setting [1], “inactive; negative”; under setting [2], “inactive; negative”; (Test System: AMES SALMONELLA TYPHIMURIUM, Strain/Indicator: TA100, Metabolic Activation: RAT, LIVER, S-9, AROCLOR 1254, Method: PREINCUBATION) “inactive; negative”.

`Cc1occc(=O)c1[O-].Cc1occc(=O)c1[O-].Cc1occc(=O)c1[O-].[Al+3]`: the mutagenic call by setting is: (Test System: AMES SALMONELLA TYPHIMURIUM, Strain/Indicator: TA92, Metabolic Activation: NONE, Method: STANDARD PLATE) “inactive; negative”; under setting [3], “inactive; negative”; under setting [4], “inactive; negative”; under setting [5], “inactive; negative”.

In the case of `CN(C)c1ccc(CCO)cc1`, the mutagenic call was “active; positive” (Test System: AMES SALMONELLA TYPHIMURIUM, Strain/Indicator: TA98, Metabolic Activation: HAMSTER, LIVER, S-9, AROCLOR 1254 (5, 10, 20%), Method: STANDARD PLATE); “active; positive” (Test System: AMES SALMONELLA TYPHIMURIUM, Strain/Indicator: TA98, Metabolic Activation: RAT, LIVER, S-9, AROCLOR 1254 (20%), Method: STANDARD PLATE); “active; positive” (Test System: AMES SALMONELLA TYPHIMURIUM, Strain/Indicator: TA98, Metabolic Activation: RAT, LIVER, S-9, AROCLOR 1254, HAMSTER, LIVER, S-9, AROCLOR 1254, Method: STANDARD PLATE); “active; positive” (Test System: AMES SALMONELLA TYPHIMURIUM, Strain/Indicator: TA1538, Metabolic Activation: HAMSTER, LIVER, S-9, AROCLOR 1254 (2.5-20%), Method: STANDARD PLATE); “active; positive” (Test System: AMES SALMONELLA TYPHIMURIUM, Strain/Indicator: TA1538, Metabolic Activation: RAT, LIVER, S-9, AROCLOR 1254 (5, 10, 20%), Method: STANDARD PLATE); “active; positive” (Test System: AMES SALMONELLA TYPHIMURIUM, Strain/Indicator: TA1538, Metabolic Activation: RAT, LIVER, S-9, AROCLOR 1254, HAMSTER, LIVER, S-9, AROCLOR 1254, Method: STANDARD PLATE). For the same compound, the mutagenic call reads like this: (Test System: MOUSE LYMPHOMA, Strain/Indicator: L5178Y (TK+/TK-), Metabolic Activation: RAT, LIVER, S-9, AROCLOR 1254, Method: SUSPENSION/PLATE) “active; positive. reevaluation of results: inconclusive”; (Test System: Mouse lymphoma, Strain/Indicator: L5178Y (tk+/tk-), Metabolic Activation: None, Method: Suspension/plate) “inactive; negative”.

Regarding `Cc1cc(O)c2c(c1)C(=O)c1cc(O)c(O)c(O)c1C2=O`, the mutagenic call (Test System: AMES SALMONELLA TYPHIMURIUM, Strain/Indicator: TA1537, Metabolic Activation: NONE, Method: STANDARD PLATE) was “inactive; negative”.
